Assay [1] can be described thus: Catalase activity (degradation of H2O2, absorbance at 240 nm). Format: biochemical. As to conditions: Mn(II) complex, 100 nM, 10 mM H2O2, 100 mM phosphate pH 7.0. As to the method:
FIG. 31 depicts representative kinetic traces for the reaction between 100 nM 1 and 10 mM H2O2 in 100 mM phosphate solution buffered to pH 7.0. The absorbance at 240 nm was monitored over time. Activity values were calculated using the UV-1601PC Kinetics program and converted to an initial rate (vo/[1]T) using the following equation: vo/[1]T=(activity)/[60 s×[…]×0.0000394 μM^−1 cm^−1×1.0 cm].
FIG. 66 depicts representative kinetic traces for the reaction between 100 nM 1 and 10 mM H2O2 in 200 mM phosphate solution buffered to pH 7.0. The absorbance at 240 nm was monitored over time. Activity values were calculated using the UV-1601PC Kinetics program and converted to an initial rate (vo/[1]T) using the following equation: vo/[1]T=(activity)/[60 s×0.1 μM×0.0000394 μM^−1 cm^−1×1.0 cm]
FIG. 67, comprising FIG. 67A and FIG. 67B, depicts a Michaelis-Menten fit of the activity of 1. FIG. 67A depicts activity of 1 with increasing concentrations of H2O2. All reactions were performed in 200 mM phosphate buffered to pH 7.0 at 25° C. with an initial 100 nM concentration of 1. […]
In order to assess the ability of the Mn(II) complex to catalyze the degradation of H2O2, we reacted 100 nM 1 with 10 mM H2O2 in 100 mM phosphate solution buffered to pH 7.0 and monitored the absorbance at 240 nm over time. […] The consumption of H2O2 was evaluated using a UV-1601 Shimadzu spectrophotometer.

Assay [2] in a line: T1-weighted relaxivity response to H2O2, 3 T clinical MRI scanner. As to conditions: Example 1, Mn(II) complex with H4qp4. On the procedure: The relaxivities of complex 1 before and during its reaction with H2O2 were assessed using a 3 T MRI scanner (FIG. 27D). T1 values were measured for aqueous solutions containing 0-1.0 mM 1 and 50 mM HEPES buffered to pH 7.00. For each concentration of 1, an oxidized sample was also prepared by adding 10 mM H2O2; the large excess of oxidant was used to ensure as full a turn-on as possible at the timepoints and to facilitate comparisons to manganese-containing MRI contrast agents that were previously prepared and characterized. The T1 values for the H2O2-containing solutions were measured 1 h and 2 h after the reagents were initially mixed. Full series of data were collected for two independently prepared batches of 1 in order to confirm that the results were replicable.
The MRI properties of 1 were assessed using methods that were previously employed in studies of manganese-containing MRI contrast agents. The relaxivity of 1 was measured before and after its reaction with excess H2O2 using a 3 T MRI scanner (FIG. 51). The r1 for the pre-activated complex was calculated from the T1 values of aqueous solutions containing 50 mM HEPES buffered to pH 7.00 and 0-1 mM 1. T1 measurements were also acquired for oxidized samples that contained 10 mM H2O2 in addition to the aforementioned reagents. The T1 values were measured 30 min and 60 min after the solution samples were initially prepared. […]

From patent US20230382934A1, “HIGH ENTROPY OXIDES AND METHODS OF SYNTHESIS AND USE THEREOF” (Auburn University, priority 2022, published 2023) come the findings set out here.

As to “(1,8-Bis(2,5-dihydroxybenzyl)-1,4,8,11tetraazacyclotetradecane)manganese(II) triflate [Complex 1]”, the “initial rate vo/[1]T” value in assay [1] was found to be 6600 s⁻¹. Moreover, the “increase in r1 upon oxidation by H2O2” value in assay [2] is recorded as 130%.
